Measurements published in PMC5286421, “Interactions of retinoids with the ABC transporters P-glycoprotein and Breast Cancer Resistance Protein” (Scientific Reports, 2017).
Read-outs that look alike come from different tables or passages of the source.

How the values were obtained:
[1] = biological target: T1, Pgp (Homo sapiens, UniProt P08183); details: Sf9 membranes, Fig. 2c
Method: (§2) For ATPase activity measurements we used membrane samples derived from Sf9 (Spodoptera frugiperda) insect ovarian cells expressing human Pgp or ABCG2. cDNAs of the transporters were cloned into recombinant baculovirus transfer vectors, the Sf9 insect ovarian cells were cultured, and infected with the baculoviruses as described in ref. [52]. Sf9 cells overexpressing human Pgp and ABCG2 were harvested and cell membranes were isolated. The protein concentration of the membrane samples were determined by the Lowry method[53]. The ABCG2 expressing Sf9 membrane samples were loaded with cholesterol by cholesterol-methyl-beta-cyclodextrine complex in order to obtain high specific ATPase activity of the transporter[54]. Membrane samples were stored at −80 °C. The transporter expression of the membrane samples (5 μg membrane protein/slot) was routinely checked by immunoblot using the G-1 mAb (for Pgp) or BXP-21 mAb (for ABCG2) and a goat anti-mouse HRP-conjugated IgG secondary antibody. Both primary and secondary antibodies were from Santa Cruz Biotechnology Inc. (CA, USA) and applied at 1:5,000 dilution.
(§3) The vanadate-sensitive ATPase activity of Pgp and ABCG2 was determined by a colorimetric assay described in refs [32],[55]. Specific ATPase activity of the transporters was calculated from the amount of released inorganic phosphate. […] The absorbance of the samples was measured at 700 nm using a BioTek Synergy HT plate reader (BioTek Instruments, Winooski, USA).

[2] = biological target: T1, Pgp; test: biochemical; details: IC50 values, Pgp stimulated (verapamil-stimulated) ATPase activity, 40 μM verapamil; Sf9 membranes; mean ± SEM, n=3
Method: as §2, §3

[3] = test system: Pgp-positive and Pgp-negative NIH 3T3 cells; test: AlamarBlue in vitro cytotoxicity assay; format: cell-based, mouse; details: 72 h, NIH 3T3 and NIH 3T3 MDR1, Supplementary Fig. S3
Method: Supplementary Fig. S3: Cytotoxic effect of retinyl-acetate on Pgp-positive and Pgp-negative NIH 3T3 cells. The AlamarBlue (Serotec, UK) based in vitro cytotoxicity assay was performed as previously described 1. Cells were seeded in 96-well plates at a cell density of 5 × 10^3 cells/well. 24 hours later retinyl-acetate was added at different concentrations and the plates were further incubated for 72 h at 37 °C. The cell viability was determined measuring the 530/590 nm fluorescence intensity of the dye in an automated microplate reader (BioTec Synergy HT, US). The AlamarBlue fluorescence intensity of the samples was normalized to the fluorescence of the retinyl-acetate untreated samples, and plotted as a function of retinyl-acetate concentration. The data points are means of eight parallel samples (±SD).
(§1) (1 picture or pasted object on this page, not shown here)

[4] = test system: NIH 3T3 / NIH 3T3 MDR1 and MDCK / MDCK ABCG2 cells; test: DPH steady-state fluorescence anisotropy (membrane fluidity); details: retinoids 100 μM
[5] = biological target: P-gp (human Pgp), basal vanadate-sensitive ATPase activity (Homo sapiens, UniProt P08183); test: in vitro; details: membranes of Sf9 insect cells expressing human Pgp, IC50 values, 10 min pre-incubation 37 °C, 3 mM ATP/Mg2+ 25 min, mean ± SEM, n=3
Method: as §2, §3

[6] = biological target: T1, Pgp; test: Calcein accumulation test (Pgp transport activity) in NIH 3T3 MDR1 cells; details: 20 min pre-treatment 37 °C, 500 nM calcein-AM 20 min
Method: (§4) Calcein-AM was applied to measure the transport activity of Pgp[51], while ABCG2 mediated transport was measured in mitoxantrone accumulation tests[18]. Cells were harvested and washed three times in PBS containing 7 mM glucose (gl-PBS). […] Dead cells were excluded from the analysis on the basis of propidium iodide (PI) staining.
(§5) Flow cytometric analysis was carried out on a Becton Dickinson FACSAria III Cell Sorter (Becton Dickinson, Mountain View, CA, USA). Calcein was excited by the 488 nm line of a solid state laser and the emitted light was detected using a 502 nm dichroic mirror and a 530/30 nm band-pass filter. […] AlexaFluor647 and mitoxantrone signals were detected with a 633 nm excitation laser and a 660/20 nm band-pass filter.

[7] = test system: Pgp- and ABCG2-negative NIH 3T3 and MDCK cells; test: Calcein and mitoxantrone accumulation in transporter negative cells; format: cell-based, mouse / canine; details: NIH 3T3 (calcein) and MDCK (mitoxantrone), Supplementary Fig. S1, 50 µM
Method: Supplementary Fig. S1: Effect of retinoid derivatives on the calcein (a) and
mitoxantrone (c) accumulation and viability (b, d) of Pgp- and ABCG2-negative NIH
3T3 and MDCK cells. Cells were pre-treated with retinoids added at 50 µM concentration
Cell viability was determined on the basis of propidium iodide exclusion.
as §1

[8] = biological target: T2, ABCG2 (Homo sapiens, UniProt Q9UNQ0); test: Vanadate-sensitive ATPase activity of ABCG2 in Sf9 membrane preparations; format: biochemical; details: cholesterol-loaded Sf9 membranes, mean ± SEM, n=3
T2 sequence (Q9UNQ0 1-655): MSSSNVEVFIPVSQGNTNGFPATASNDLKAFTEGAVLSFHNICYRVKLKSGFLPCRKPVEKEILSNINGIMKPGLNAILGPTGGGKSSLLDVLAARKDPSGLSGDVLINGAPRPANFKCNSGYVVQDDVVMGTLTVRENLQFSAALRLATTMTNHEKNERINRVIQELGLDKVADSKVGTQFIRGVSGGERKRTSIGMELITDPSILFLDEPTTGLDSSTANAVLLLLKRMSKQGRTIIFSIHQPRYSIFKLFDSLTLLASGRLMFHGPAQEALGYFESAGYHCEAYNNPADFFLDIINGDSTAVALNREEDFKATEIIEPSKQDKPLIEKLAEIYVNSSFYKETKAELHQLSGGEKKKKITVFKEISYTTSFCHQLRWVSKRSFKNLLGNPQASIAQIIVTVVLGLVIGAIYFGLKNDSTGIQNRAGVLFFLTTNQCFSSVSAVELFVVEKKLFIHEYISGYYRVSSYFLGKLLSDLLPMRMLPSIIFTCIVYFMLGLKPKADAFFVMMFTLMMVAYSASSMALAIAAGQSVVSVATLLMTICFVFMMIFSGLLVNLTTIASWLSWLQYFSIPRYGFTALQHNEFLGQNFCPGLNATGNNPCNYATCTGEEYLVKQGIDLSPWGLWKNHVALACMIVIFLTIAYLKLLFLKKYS
Method: For ATPase activity measurements we used membrane samples derived from Sf9 (Spodoptera frugiperda) insect ovarian cells expressing human Pgp or ABCG2. cDNAs of the transporters were cloned into recombinant baculovirus transfer vectors, the Sf9 insect ovarian cells were cultured, and infected with the baculoviruses as described in ref. [52]. Sf9 cells overexpressing human Pgp and ABCG2 were harvested and cell membranes were isolated. The protein concentration of the membrane samples were determined by the Lowry method. The ABCG2 expressing Sf9 membrane samples were loaded with cholesterol by cholesterol-methyl-beta-cyclodextrine complex in order to obtain high specific ATPase activity of the transporter. Membrane samples were stored at −80 °C. The transporter expression of the membrane samples (5 μg membrane protein/slot) was routinely checked by immunoblot using the G-1 mAb (for Pgp) or BXP-21 mAb (for ABCG2) and a goat anti-mouse HRP-conjugated IgG secondary antibody. Both primary and secondary antibodies were from Santa Cruz Biotechnology Inc. (CA, USA) and applied at 1:5,000 dilution.
The vanadate-sensitive ATPase activity of Pgp and ABCG2 was determined by a colorimetric assay described in refs [32],[55]. Specific ATPase activity of the transporters was calculated from the amount of released inorganic phosphate. […]. The absorbance of the samples was measured at 700 nm using a BioTek Synergy HT plate reader (BioTek Instruments, Winooski, USA).
The half-inhibitory doses (IC50) of retinoids were determined by fitting the dose-response relationships with a four parameter sigmoidal curve, where Amax and Amin are the ATPase activities measured at zero and at infinitely high inhibitor concentrations, respectively, n is the Hill coefficient and x is the concentration of the inhibitor:
Upon studying the kinetics of inhibition of the substrate-stimulated ATPase activity by retinoids data points were fitted with a modified form of the Michaelis-Menten equation[56] which includes the Hill coefficient, n: […]
v0 is the basal ATPase activity measured in the absence of the stimulatory substrate, while vmax is the maximal extent of ATPase stimulation and KM is the Michaelis constant (i.e. the substrate concentration at which the reaction rate is half of vmax).

[9] = biological target: T2, ABCG2; test: Mitoxantrone accumulation test (ABCG2 transport activity) in MDCK ABCG2 cells; details: 20 min pre-treatment 37 °C, 5 μM mitoxantrone 40 min
Method: as §4, §5

[10] = ref PubChem Compound Database (CID); cited from earlier work

T1 sequence (P08183 whole entry): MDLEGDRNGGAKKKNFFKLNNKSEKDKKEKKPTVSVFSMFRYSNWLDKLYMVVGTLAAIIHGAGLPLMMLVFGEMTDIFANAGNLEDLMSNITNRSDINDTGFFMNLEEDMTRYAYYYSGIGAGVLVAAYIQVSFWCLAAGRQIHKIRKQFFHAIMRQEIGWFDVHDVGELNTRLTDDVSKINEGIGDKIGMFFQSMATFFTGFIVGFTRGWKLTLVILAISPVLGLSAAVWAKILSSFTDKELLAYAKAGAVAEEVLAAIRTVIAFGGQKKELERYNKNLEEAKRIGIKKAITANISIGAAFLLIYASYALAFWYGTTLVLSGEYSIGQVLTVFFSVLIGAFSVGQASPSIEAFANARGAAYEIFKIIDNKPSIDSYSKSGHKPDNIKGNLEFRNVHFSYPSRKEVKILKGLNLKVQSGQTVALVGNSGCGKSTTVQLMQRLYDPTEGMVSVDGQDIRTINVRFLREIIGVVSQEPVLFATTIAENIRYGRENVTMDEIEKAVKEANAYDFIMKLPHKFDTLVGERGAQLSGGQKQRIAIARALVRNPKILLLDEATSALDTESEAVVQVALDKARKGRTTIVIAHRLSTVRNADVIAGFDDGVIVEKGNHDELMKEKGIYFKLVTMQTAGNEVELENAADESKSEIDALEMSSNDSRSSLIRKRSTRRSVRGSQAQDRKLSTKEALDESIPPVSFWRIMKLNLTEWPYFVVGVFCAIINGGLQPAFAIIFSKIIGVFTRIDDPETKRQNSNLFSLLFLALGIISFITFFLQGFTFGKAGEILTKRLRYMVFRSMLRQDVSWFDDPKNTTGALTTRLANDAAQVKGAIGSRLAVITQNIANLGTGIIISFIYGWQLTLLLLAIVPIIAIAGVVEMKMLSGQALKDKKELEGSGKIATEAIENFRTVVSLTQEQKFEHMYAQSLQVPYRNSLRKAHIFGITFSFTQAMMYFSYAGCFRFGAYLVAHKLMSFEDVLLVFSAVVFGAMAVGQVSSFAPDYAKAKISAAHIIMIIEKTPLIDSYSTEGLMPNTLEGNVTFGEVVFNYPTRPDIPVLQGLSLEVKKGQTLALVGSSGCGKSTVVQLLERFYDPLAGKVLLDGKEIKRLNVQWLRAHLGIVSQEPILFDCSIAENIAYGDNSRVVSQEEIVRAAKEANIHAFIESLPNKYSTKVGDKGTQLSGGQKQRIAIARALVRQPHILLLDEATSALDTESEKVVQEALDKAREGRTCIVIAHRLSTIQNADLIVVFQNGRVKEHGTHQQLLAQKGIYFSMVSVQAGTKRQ
Sequence of P-gp (human Pgp), basal vanadate-sensitive ATPase activity (P08183 whole entry): as above

- Effect on the basal ATPase activity of Pgp [1]: slightly stimulated
- IC50 [2]: 19.1 ± 5 µM
- IC50 at 25 min [5]: 36.8 ± 4 µM
- IC50 ([8]; 10 μM quercetin, read-out: IC50 values, ABCG2 stimulated (quercetin-stimulated) ATPase activity): 70.4 ± 7.3 µM
- IC50 ([8]; read-out: IC50 values, ABCG2 basal ATPase activity): 18.9 ± 4 µM
Compound: CC(=O)OC/C=C(C)/C=C/C=C(C)/C=C/C1=C(C)CCCC1(C)C [Retinyl-acetate]
- Cytotoxicity profile in Pgp+ versus Pgp− cells [3]: identical cytotoxicity profile
- Effect on DPH fluorescence anisotropy ([4]; cyclosporin 10 μM, Ko143 2 μM, 10 min 37 °C, all tested cell lines): increased the DPH fluorescence anisotropy values significantly
- Effect on DPH anisotropy in transporter expressing compared to non-expressing cells ([4]; Pgp+ vs Pgp− NIH 3T3, ABCG2 expressing vs non-expressing MDCK): significantly lower effect
- Effect on calcein accumulation of Pgp expressing cells (Pgp transport activity) [6]: increased the cellular accumulation of the fluorescent transporter substrates in a concentration dependent manner
- Effect on substrate accumulation of transporter negative cells [7]: did not have any effect
- Effect on mitoxantrone accumulation of ABCG2 expressing cells (ABCG2 transport activity) [9]: increased the cellular accumulation of the fluorescent transporter substrates in a concentration dependent manner
- LogP (octanol-water partition coefficient, LogPow) [10]: 6.3
